Data reported in article PMC3091868, “A Novel Structural Framework for α1A/D-Adrenoceptor Selective Antagonists Identified Using Subtype Selective Pharmacophores” (PLoS ONE, 2011).
Where two headings read alike, the source gives them in different places.

Key:
α1A-AR [1] = target: T1, α1A-AR (Rattus norvegicus, UniProt P43140); assay: [3H]Prazosin competition/saturation binding on COS-1 membranes expressing α1A-AR; set-up: species or system rodent; settings: for Ki: [3H]Prazosin 200 pM, COS-1 membranes
T1 construct: expressed in transfected cells; host or cells: COS-1
T1 sequence (P43140 1-466): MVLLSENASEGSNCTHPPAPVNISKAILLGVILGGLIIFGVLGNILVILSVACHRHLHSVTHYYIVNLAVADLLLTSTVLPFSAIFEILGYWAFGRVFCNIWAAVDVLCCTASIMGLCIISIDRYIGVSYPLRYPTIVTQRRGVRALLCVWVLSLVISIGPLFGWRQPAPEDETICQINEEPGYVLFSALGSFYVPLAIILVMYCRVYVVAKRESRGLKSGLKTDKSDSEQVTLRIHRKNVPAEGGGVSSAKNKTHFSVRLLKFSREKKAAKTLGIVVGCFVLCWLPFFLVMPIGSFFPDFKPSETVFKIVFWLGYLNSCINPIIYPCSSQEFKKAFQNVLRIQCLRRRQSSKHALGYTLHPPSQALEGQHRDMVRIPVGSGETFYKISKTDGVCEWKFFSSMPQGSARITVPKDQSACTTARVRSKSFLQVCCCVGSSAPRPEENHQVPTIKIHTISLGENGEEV
Description: (§1) COS-1 cells (American Type Culture Collection, Manassas, VA) were cultured in Dulbecco's modified Eagle's medium (DMEM) supplemented with 10% (v/v) heat inactivated fetal bovine serum (FBS), 100 µg ml^−1 penicillin and 100 µg ml^−1 streptomycin. Cells were maintained and passaged upon reaching confluence by standard cell culture techniques. pMT4 plasmids containing rodent α1-AR (a kind gift from Prof R Graham, Victor Chang Cardiac Research Institute, Australia) were used to transfect cells. Transient expression in COS-1 cells was accomplished using two techniques; the diethylaminoethane-dextran (DEAE-dextran) and Lipofectamine 2000 (Invitrogen, Carlsbad, CA, USA) methods. Briefly, the DEAE-dextran method involved washing of cells with phosphate buffered saline (PBS), followed by the addition of the DNA mixture (12–25 µg/4×10^6 cells) in DEAE-dextran (10 mg ml^−1) to cells at 60–80% confluency. Following a 3 h incubation, a PBS wash with 10% DMSO was used to shock the cells. Cells were harvested 72 h post transfection. For the Lipofectamine 2000 method, cells were incubated for 12 h with Opti-MEM (GIBCO BRL, Gaithersburg, MD, USA) containing Lipofectamine 2000.
(§2) Membranes were prepared as described previously. Briefly, COS-1 cells were transiently transfected using the DEAE-dextran method. […] Protein concentration was determined using Bradford reagent (Sigma, St Louis, MO, USA).
(§3) For all binding experiments, the reaction mixture was incubated for 1 h at room temperature, stopped by the addition of 4°C PBS and filtered with a Brandel cell harvester (Gaithersburg, MD, USA) on GF/C filters. Nonspecific binding was defined as binding in the presence of 100 µM phentolamine hydrochloride.
(§4) Nonlinear regression analysis of saturation and competition binding assay data was performed using the […] curve fitting program GraphPad Prism (San Diego, CA, USA). […] The competitive binding data for each ligand was tested for both one and two -site binding.

α1B-AR = target: T2, α1B-AR (Mesocricetus auratus, UniProt P18841); assay: [3H]Prazosin competition/saturation binding on COS-1 membranes expressing α1B-AR; set-up: species or system rodent
T2 construct: expressed in transfected cells; host or cells: COS-1
T2 sequence (P18841 1-515): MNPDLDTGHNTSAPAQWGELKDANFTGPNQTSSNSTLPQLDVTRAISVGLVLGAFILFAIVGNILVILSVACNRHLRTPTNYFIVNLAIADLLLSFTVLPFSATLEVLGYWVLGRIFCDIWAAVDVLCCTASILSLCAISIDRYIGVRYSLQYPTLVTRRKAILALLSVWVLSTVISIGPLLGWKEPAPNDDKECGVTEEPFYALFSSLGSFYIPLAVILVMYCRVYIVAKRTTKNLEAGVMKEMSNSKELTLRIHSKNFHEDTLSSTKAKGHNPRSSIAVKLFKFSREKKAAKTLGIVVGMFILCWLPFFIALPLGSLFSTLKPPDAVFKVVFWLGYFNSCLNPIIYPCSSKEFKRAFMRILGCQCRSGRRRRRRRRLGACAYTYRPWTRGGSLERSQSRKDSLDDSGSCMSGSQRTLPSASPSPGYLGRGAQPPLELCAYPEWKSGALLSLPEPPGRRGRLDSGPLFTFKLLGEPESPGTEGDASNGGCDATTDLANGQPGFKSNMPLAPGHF
Description: as §1, §2, §3, §4

α1D-AR [2] = target: T3, α1D-AR (Rattus norvegicus, UniProt P23944); assay: [3H]Prazosin competition/saturation binding on COS-1 membranes expressing α1D-AR; set-up: species or system rodent; settings: [3H]Prazosin 200 pM
T3 construct: expressed in transfected cells; host or cells: COS-1
T3 sequence (P23944 1-561): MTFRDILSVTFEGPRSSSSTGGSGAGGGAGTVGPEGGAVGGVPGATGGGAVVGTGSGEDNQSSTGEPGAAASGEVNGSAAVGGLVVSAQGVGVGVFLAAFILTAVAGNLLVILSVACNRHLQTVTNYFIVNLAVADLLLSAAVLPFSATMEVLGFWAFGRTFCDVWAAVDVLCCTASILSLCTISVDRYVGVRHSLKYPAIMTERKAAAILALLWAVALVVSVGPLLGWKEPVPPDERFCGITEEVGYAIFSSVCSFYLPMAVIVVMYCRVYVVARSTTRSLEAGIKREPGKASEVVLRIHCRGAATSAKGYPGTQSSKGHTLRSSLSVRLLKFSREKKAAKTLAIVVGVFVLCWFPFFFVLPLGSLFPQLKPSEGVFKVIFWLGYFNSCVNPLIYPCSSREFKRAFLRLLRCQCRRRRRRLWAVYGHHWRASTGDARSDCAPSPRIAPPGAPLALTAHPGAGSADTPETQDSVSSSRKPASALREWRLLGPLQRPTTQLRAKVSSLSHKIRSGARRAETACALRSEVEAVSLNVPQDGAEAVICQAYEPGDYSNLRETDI
Description: as §1, §2, §3, §4

α1A-AR [3] = target: T1, α1A-AR; assay: Phosphatidylinositol hydrolysis (IP accumulation) assay in COS-1 cells expressing α1A-AR; format: cell-based, rodent; settings: for IC50: 20 min compound, then 10 µM (-)-norepinephrine 30 min, COS-1 cells, read-out: pIC50, inhibition of norepinephrine induced IP accumulation at α1A-AR (converted)
Description: as §1
Accumulation of [^3H] inositol phosphates (IPs) was determined as described previously. Briefly, COS-1 cells were transiently transfected with α1A, α1B and α1D - AR pMT4 plasmids using the Lipofectamine method. 24 h after transfection, cells were seeded into 96 well plates and labelled overnight with 20 µCi ml^−1 [^3H]myo-inositol in inositol free DMEM supplemented with 5% charcoal stripped FBS. Cells were washed twice with inositol free DMEM, and incubated in inositol free DMEM for 2 h at 37°C. Cells were treated for 20 minutes with LiCl (20 mM) and propanolol (20 µM) in the presence or absence of tested compounds. Agonists were then added for 30 min, and the reaction was terminated by addition of 0.4 M formic acid. Cells were lysed by freeze thawing twice and were applied to AG 1-X8 columns. Total IPs were eluted with 1 M ammonium formate in 0.1 M formic acid. 200 µL of eluted sample was diluted with 1 mL reverse osmosis water and 5 mL Ultimaflow scintillation fluid (Perkin Elmer), and were counted in a liquid scintillation counter.
Compounds were administered alone (100 µM) or prior to the addition of 10 µM […], to screen for agonist or antagonist activity respectively.
Figure 2 Inhibition of norepinephrine induced inositol phosphate (IP) accumulation at α1A- AR. α1A-AR transfected cells labelled overnight with [^3H]- myo-inositol were treated with indicated concentrations (300 µM – 0.1 µM) of test compounds, 1 (▪), 2 (▵), and 11 (○), for 20 min. This was followed by a 30 min. stimulation with 10 µM (-)- norepinephrine, following which total IP accumulation was determined. Data was normalized against basal COS-1 cell IP production and expressed as a percentage of the (-)-norepinephrine-stimulated maximal IP response of that receptor subtype. The data represented the mean ± SE of a single experiment (n = 4–5), performed in triplicate.
Figure 3 Inositol phosphate (IP) accumulation in the presence of norepinephrine and compound 8 at the α1A- adrenoceptor (AR). α1A-AR transfected cells were labelled with [^3H]- myo-inositol. Following a 20 min. treatment with lithium chloride (20 mM) and propanolol (20 µM) the cells were stimulated with the indicated concentrations (300 µM − 0.1 µM) of (-) norepinephrine (•) or compound 8 (▪) for 30 min. Total inositol phosphate (IP) accumulation was determined as described under “Materials and Methods”. Data was normalized against basal COS-1 cell IP production and expressed as a percentage of the (-)-norepinephrine-stimulated maximal IP response. The data represents the mean ± SE of three separate experiments (n = 3), performed in duplicate or triplicate.

α1D-AR [4] = target: T3, α1D-AR; assay: Phosphatidylinositol hydrolysis (IP accumulation) assay in COS-1 cells expressing α1D-AR; format: cell-based, rodent; settings: 100 µM compound alone, agonist screen, n = 3
Description: as §1, with “For the Lipofectamine 2000 method, cells were incubated for 12 h with Opti-MEM (GIBCO BRL, Gaithersburg, MD, USA) containing Lipofectamine 2000.” left out
Accumulation of [^3H] inositol phosphates (IPs) was determined as described previously. […] 200 µL of eluted sample was diluted with 1 mL reverse osmosis water and 5 mL Ultimaflow scintillation fluid (Perkin Elmer), and were counted in a liquid scintillation counter. […]

all α1-AR subtypes = target: all α1-AR subtypes; set-up: method as in PMID 9249248; settings: cited from earlier work
[5] = antilog of mean pKi, Cheng-Prusoff, read-out: Ki α1A-AR
[6] = pKi = -Log Ki, read-out: pKi α1A-AR (converted)
[7] = [3H]Prazosin 200 pM, COS-1 membranes, antilog of mean pKi, Cheng-Prusoff, read-out: Ki α1B-AR
[8] = [3H]Prazosin 200 pM, COS-1 membranes, pKi = -Log Ki, read-out: pKi α1B-AR (converted)
[9] = antilog of mean pKi, Cheng-Prusoff, read-out: Ki α1D-AR
[10] = pKi = -Log Ki, read-out: pKi α1D-AR (converted)

Row | Ki (α1A-AR [1]; [5]) | Ki (α1A-AR [1]; [6]) | Ki (α1B-AR; [7]) | Ki (α1B-AR; [8]) | Ki (α1D-AR [2]; [9]) | Ki (α1D-AR [2]; [10]) | Maximal IP production, % of the (-) norepinephrine control (α1A-AR [3]; COS-1 cells expressing α1A-AR) | EC50 (α1A-AR [3]; COS-1 cells expressing α1A-AR, 30 min, n = 3, read-out: pEC50, increase in intracellular IP at α1A-AR (converted)) | Compound | selectivity for α1A-AR over α1B-AR (α1A-AR [1]; from binding affinities) | IC50 (α1A-AR [3]) | Ki (α1A-AR [1]; Ki α1A-AR, antilog of mean pKi, Cheng-Prusoff) | Ki (α1B-AR) | Ki (α1D-AR [2]; Ki α1D-AR, antilog of mean pKi, Cheng-Prusoff) | IP production, compound alone, compared to control, α1A-AR (α1A-AR [3]; 100 µM compound alone, agonist screen, n = 3) | IP production, compound alone, compared to control, α1D-AR (α1D-AR [4]) | Ki (all α1-AR subtypes) | selectivity for α1A-AR over α1D-AR (α1A-AR [1]; from binding affinities)
1 | 2 µM | 1.78 µM | 11.8 µM | 11 µM | 1.6 µM | 1.51 µM | – | – | COc1cc2c(cc1OC)C1CC(C)=C(c3ccccc3)CN1CC2 (stereo not drawn) [Compound 11] | 7 fold | 13.2 µM | – | – | – | – | – | – | –
2 | 45.9 µM | 41.7 µM | > 100 µM | > 100 µM | 48.7 µM | – | approximately 30% | 5.5 µM | CCCCCCCCN(CCCCCCCC)CC(O)c1ccccc1Cl (stereo not drawn) [Compound 8] | – | – | – | – | – | distinct trend of increased IP production | distinct trend of increased IP production | – | –
3 | > 100 µM | > 100 µM | > 100 µM | > 100 µM | > 100 µM | > 100 µM | – | – | Cc1cccc(CN2CCCN(C(=S)NCCN3CCOCC3)CC2)n1 [Compound 5] | – | – | – | – | – | – | – | – | –

Second part, the compound before the results:

Row | Compound | Ki (α1A-AR [1]; [5]) | Ki (α1A-AR [1]; [6]) | Ki (α1B-AR; [7]) | Ki (α1B-AR; [8]) | Ki (α1D-AR [2]; [9]) | Ki (α1D-AR [2]; [10]) | Maximal IP production, % of the (-) norepinephrine control (α1A-AR [3]; COS-1 cells expressing α1A-AR) | EC50 (α1A-AR [3]; COS-1 cells expressing α1A-AR, 30 min, n = 3, read-out: pEC50, increase in intracellular IP at α1A-AR (converted)) | selectivity for α1A-AR over α1B-AR (α1A-AR [1]; from binding affinities) | IC50 (α1A-AR [3]) | Ki (α1A-AR [1]; Ki α1A-AR, antilog of mean pKi, Cheng-Prusoff) | Ki (α1B-AR) | Ki (α1D-AR [2]; Ki α1D-AR, antilog of mean pKi, Cheng-Prusoff) | IP production, compound alone, compared to control, α1A-AR (α1A-AR [3]; 100 µM compound alone, agonist screen, n = 3) | IP production, compound alone, compared to control, α1D-AR (α1D-AR [4]) | Ki (all α1-AR subtypes) | selectivity for α1A-AR over α1D-AR (α1A-AR [1]; from binding affinities)
4 | Cc1ccc(C)c(N2CCN(CC(O)COC(C)(C)C)CC2)c1 (stereo not drawn) [Compound 1] | 1.17 µM | – | 1.42 µM | – | 0.83 µM | 0.794 µM | – | – | – | 25.1 µM | < 2 µM | < 2 µM | < 2 µM | – | – | – | –
5 | CCCCN(Cc1ccc(N(CC)CC)cc1)CC(O)c1ccc(Cl)cc1 (stereo not drawn) [Compound 12] | 45.5 µM | 30.9 µM | > 100 µM | > 100 µM | 62.4 µM | 32.4 µM | – | – | – | – | – | – | – | – | – | – | –
6 | COc1cc2nc(N3CCN(C(=O)c4ccco4)CC3)nc(N)c2cc1OC [prazosin] | – | – | – | – | – | – | – | – | – | – | – | – | – | – | – | ~0.0001 µM | –
7 | COc1cccc(C=CCN2CCN(c3cccc(C(F)(F)F)c3)CC2)c1 [Compound 2] | 0.49 µM | – | 4.59 µM | – | 18.8 µM | 10.5 µM | – | – | 10 fold | 17 µM | – | – | – | – | – | – | 38 fold
